Measurements taken from patent publication US20220089541A1, “Compounds for the Treatment of Kinase-Dependent Disorders” (Exelixis, Inc., priority 2019, published 2022).

What was measured:
Mer = target: T1, Mer (Homo sapiens, UniProt Q12866); test: Mer autophosphorylation ELISA in transient transfected 293A cells; format: cell-based; details: 293A cells transfected with MERTK DNA, phospho-Mer ELISA, 1 h compound incubation
T1 construct: host or cells: 293A cells (Thermo Fisher #R70507)
T1 sequence (Q12866 21-999): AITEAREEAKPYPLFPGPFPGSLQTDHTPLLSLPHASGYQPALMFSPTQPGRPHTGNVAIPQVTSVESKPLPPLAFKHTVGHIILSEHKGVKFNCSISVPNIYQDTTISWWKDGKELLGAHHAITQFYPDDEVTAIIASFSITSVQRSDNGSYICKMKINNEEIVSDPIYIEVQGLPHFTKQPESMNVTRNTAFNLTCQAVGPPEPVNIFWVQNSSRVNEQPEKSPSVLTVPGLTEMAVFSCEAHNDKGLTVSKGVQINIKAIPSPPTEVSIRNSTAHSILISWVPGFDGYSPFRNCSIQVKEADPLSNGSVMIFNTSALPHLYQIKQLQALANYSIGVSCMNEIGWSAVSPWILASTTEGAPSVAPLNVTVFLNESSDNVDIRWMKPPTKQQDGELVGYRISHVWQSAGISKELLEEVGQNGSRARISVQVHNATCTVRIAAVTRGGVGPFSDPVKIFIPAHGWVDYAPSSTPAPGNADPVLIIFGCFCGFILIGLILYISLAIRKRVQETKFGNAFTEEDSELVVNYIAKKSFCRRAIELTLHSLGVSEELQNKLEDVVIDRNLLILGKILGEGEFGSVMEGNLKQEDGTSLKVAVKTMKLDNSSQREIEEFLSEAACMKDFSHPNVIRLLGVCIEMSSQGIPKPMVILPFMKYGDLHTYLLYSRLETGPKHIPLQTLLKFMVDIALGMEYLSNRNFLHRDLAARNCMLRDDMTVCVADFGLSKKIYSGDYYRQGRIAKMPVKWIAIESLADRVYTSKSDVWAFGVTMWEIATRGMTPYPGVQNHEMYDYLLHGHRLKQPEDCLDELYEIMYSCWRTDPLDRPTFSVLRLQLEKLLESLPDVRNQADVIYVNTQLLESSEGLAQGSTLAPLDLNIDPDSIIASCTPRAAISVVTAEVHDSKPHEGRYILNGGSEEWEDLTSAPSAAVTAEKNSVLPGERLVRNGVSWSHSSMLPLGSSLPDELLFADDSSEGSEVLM
Procedure: Example D: Mer Autophosphorylation ELISA in Transient Transfected 293A Cells
293A cells (Thermo Fisher #R70507) were seeded at 1.5×10^6 cells/well onto 100 mm dish (Greiner #664169), in DMEM (Thermo Fisher #11995-040) containing 10% FBS (Thermo Fisher #26140-079), 1% MEM NEAA (Thermo Fisher #11140-050), 1% GlutaMax (Thermo Fisher #35050-061), and 1% Penicillin Streptomycin (Thermo Fisher #15140-122). 293A cells were incubated at 37° C., 5% CO2 for 24 h and then transfected with 6 μg MERTK DNA (Genecopoeia #EX-Z8208-M02) using TransIT LT1 transfection reagent (Mirus-Bio #MIR2305). After 24 h incubation, the transfected 293A cells were seeded at 1×10^5 cells/well onto 96-well plates (Corning #3904) in DMEM growth medium overnight. Test compounds were serially diluted to produce an 8-point dose curve in fresh serum-free medium to a final concentration of 0.3% DMSO (vehicle) and added to the cells and incubated for 1 h. Cells were then immediately lysed with 150 μL of cold IX lysis buffer [20 mM Tris, 137 mM sodium chloride, 2 mM EDTA, 10% glycerol, l % NP-40 alternative, 1 mM activated sodium orthovanadate, 1 mM PefaBloc SC (Sigma-Aldrich #11429868001), protease/phosphatase inhibitor tablet (Thermo Fisher #A32959)]. Lysates were clarified by centrifugation and 50 μL/well added into the human phospho-Mer DuoSet IC ELISA (R&D Systems #DYC2579-2). Assay was performed according to manufacturer's instructions and sample phospho-Mer concentrations were extrapolated using human phospho-Mer control (R&D Systems #841793) as a standard. Positive control wells (100% activity) contained DMSO-treated cell lysates. Negative control wells (0% activity) contained reference inhibitor-treated cell lysates. IC50 values were calculated by nonlinear regression analysis using a 4-parameter logistic curve fit in ActivityBase XE (IDBS).

[1] = Microsomal assay, mouse liver microsome stability; details: liver microsomes, pH 7.4
Procedure: Liver microsomes tissue fractions were used for in vitro assessment of metabolic stability of compounds by cytochrome P450 (CYP450) (for example, CYP3A4, CYP2C9) mediated phase I oxidation, and metabolism through other pathways. Human, mouse, rat, and dog liver microsomes tissue fractions were obtained from Corning Gentest and BioreclamationIVT.
The assay was carried out in 96-well microtiter plates. Compounds were incubated (N=l) at 37° C. in the presence of liver microsomes. Reaction mixtures (25 μL) contained a final concentration of 1 μM test compound, 0.5 mg/mL liver microsomes (LM) protein, and 1 mM NADPH in 100 mM potassium phosphate, pH 7.4 buffer with 3.3 mM MgCl2. The extent of metabolism was calculated as the disappearance of the test compound, compared to the 0-min control reaction incubations. Verapamil was included as a positive control to verily assay performance.
At each of the four time points, 150 μL of quench solution (100% acetonitrile with 0.1% formic acid) with internal standard (bucetin for positive ESI mode) was transferred to each well. Plates were sealed and centrifuged at 10° C. for 15 minutes at 4000 rpm. The supernatant was transferred to fresh plates for LC/MS/MS analysis.
All samples were analyzed on LC/MS/MS using an AB Sciex API 4000 instrument, coupled to a Shimadzu LC-20AD LC Pump system. Analytical samples were separated using a Waters Atlantis T3 dC18 reverse phase HPLC column (20 mm×2.1 mm) at a flow rate of 0.5 mL/min. The mobile phase consisted of 0.1% formic acid in water (solvent A) and 0.1% formic acid in 100% acetonitrile (solvent B).

KDR = target: T2, KDR (Homo sapiens, UniProt P35968); test: KDR autophosphorylation ELISA in HUVEC cells; format: cell-based; details: VEGF165-stimulated, phospho-KDR ELISA, 1 h compound incubation
T2 construct: host or cells: HUVEC (human umbilical vein endothelial cells)
T2 sequence (P35968 20-1356): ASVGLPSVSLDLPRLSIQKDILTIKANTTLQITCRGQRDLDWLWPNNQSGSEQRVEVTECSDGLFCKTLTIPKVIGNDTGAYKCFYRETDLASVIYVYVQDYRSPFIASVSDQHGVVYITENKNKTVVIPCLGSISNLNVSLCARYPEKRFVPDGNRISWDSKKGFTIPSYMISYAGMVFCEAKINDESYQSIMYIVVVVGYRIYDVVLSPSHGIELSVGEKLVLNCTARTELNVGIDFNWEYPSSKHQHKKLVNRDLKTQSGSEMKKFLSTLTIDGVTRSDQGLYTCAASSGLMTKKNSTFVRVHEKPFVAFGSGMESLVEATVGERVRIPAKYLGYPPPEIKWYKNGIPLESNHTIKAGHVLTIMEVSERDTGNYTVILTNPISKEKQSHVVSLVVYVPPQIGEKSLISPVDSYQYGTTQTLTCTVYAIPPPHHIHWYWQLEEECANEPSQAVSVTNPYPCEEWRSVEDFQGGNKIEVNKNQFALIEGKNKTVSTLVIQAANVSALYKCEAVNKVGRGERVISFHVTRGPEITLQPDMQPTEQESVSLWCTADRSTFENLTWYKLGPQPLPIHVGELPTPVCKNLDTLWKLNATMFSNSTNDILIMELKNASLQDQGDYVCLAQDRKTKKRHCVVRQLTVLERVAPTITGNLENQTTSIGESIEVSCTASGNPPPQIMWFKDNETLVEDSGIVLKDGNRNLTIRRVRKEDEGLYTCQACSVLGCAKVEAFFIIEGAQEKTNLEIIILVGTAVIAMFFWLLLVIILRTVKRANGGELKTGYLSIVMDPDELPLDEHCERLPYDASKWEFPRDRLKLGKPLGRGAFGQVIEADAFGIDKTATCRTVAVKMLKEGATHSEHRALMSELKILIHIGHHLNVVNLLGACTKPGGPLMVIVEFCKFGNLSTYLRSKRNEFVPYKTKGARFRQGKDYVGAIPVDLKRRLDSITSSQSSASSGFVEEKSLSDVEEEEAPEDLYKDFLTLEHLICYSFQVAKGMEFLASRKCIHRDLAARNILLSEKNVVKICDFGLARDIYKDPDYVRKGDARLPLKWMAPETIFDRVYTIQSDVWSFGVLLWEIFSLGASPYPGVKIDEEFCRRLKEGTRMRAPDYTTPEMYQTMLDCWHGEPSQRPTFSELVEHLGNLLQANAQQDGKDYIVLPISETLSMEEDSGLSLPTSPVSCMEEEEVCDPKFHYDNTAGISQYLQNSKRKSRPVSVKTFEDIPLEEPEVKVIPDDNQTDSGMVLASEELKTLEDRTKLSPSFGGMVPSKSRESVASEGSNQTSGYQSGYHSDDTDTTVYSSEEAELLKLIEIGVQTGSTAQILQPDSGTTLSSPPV
Procedure: Example C: KDR Autophosphorylation ELISA in HUVEC Cells
umbilical vein endothelial cells or HUVEC (Lonza #C2519A) were seeded at 2×10^4 cells/well onto 96-well plates (Corning #3904), in EGM-2 growth medium (Lonza #CC-3162) containing 1% Penicillin Streptomycin (Thermo Fisher #15140-122). HUVEC cells were incubated at 37° C., 5% CO2 for 24 h and then starved for 24 h in serum-free EBM-2 basal medium (Lonza #CC-3156) containing 1% Penicillin Streptomycin. Test compounds were serially diluted to produce an 8-point dose curve in fresh serum-free medium to a final concentration of 0.3% DMSO (vehicle) and added to the cells and incubated for 1 h. Cells were then stimulated with 100 ng/mL recombinant human VEGF165 (R&D Systems #293-VE-500) for 5 min, washed with cold PBS, and immediately lysed with 130 μL of cold IX lysis buffer [20 mM Tris, 137 mM sodium chloride, 2 mM EDTA, 10% glycerol, 1% NP-40 alternative, 1 mM activated sodium orthovanadate, 1 mM PefaBloc SC (Sigma-Aldrich #11429868001), protease/phosphatase inhibitor tablet (Thermo Fisher #A32959)]. Lysates were collected and 100 μL/well added into the human phospho-KDR DuoSet IC ELISA (R&D Systems #DYC 1766-2). Assay was performed according to manufacturer's instructions and sample phospho-KDR concentrations were extrapolated using human phospho-KDR control (R&D Systems #841421) as a standard. Positive control wells (100% activity) contained VEGF165-stimulated, DMSO-treated cell lysates. Negative control wells (0% activity) contained non-stimulated cell lysates. IC50 values were calculated by nonlinear regression analysis using a 4-parameter logistic curve fit in ActivityBase XE (IDBS).

SMILES | IC50 (Mer) | half-life at 1 μM [1] | IC50 (KDR)
COc1cc2nccc(Oc3ncc(NC(=O)C4(C(=O)N(C)c5ccc(F)cc5)CC4)cc3F)c2cc1C(N)=O [Compound 35, 1-N-[6-(6-Carbamoyl-7-methoxyquinolin-4-yl)oxy-5-fluoropyridin-3-yl]-1-N′-(4-fluorophenyl)-1-N′-methylcyclopropane-1,1-dicarboxamide] | > 300 nM | 1.9 min | > 300 nM
COc1cc2nccc(Oc3ccc(NC(=O)C4(C(=O)N(C)c5ccc(F)cc5)CC4)cc3F)c2cc1OC [Compound 10, N-(4-((6,7-Dimethoxyquinolin-4-yl)oxy)-3-fluorophenyl)-N-(4-fluorophenyl)-N-methylcyclopropane-1,1-dicarboxamide] | > 300 nM | 4.1 min | > 300 nM
CNC(=O)c1cc2c(Oc3ncc(NC(=O)C4(C(=O)N(C)c5ccc(F)cc5)CC4)cc3F)ccnc2cc1OC [Compound 34, 1-N-[5-Fluoro-6-[7-methoxy-6-(methylcarbamoyl)quinolin-4-yl]oxypyridin-3-yl]-1-N′-(4-fluorophenyl)-1-N′-methylcyclopropane-1,1-dicarboxamide] | > 300 nM | 2.6 min | > 300 nM
COc1cc2nccc(Oc3ccc(NC(=O)C4(C(=O)N(C)c5ccc(F)cc5)CC4)cc3)c2cc1OC [Compound 9, 1-N-[4-(6,7-Dimethoxyquinolin-4-yl)oxyphenyl]-1-N′-(4-fluorophenyl)-1-N′-methylcyclopropane-1,1-dicarboxamide] | > 300 nM | 3.1 min | > 300 nM
COc1cc2nccc(Oc3ccc(N(C)C(=O)C4(C(=O)Nc5ccc(F)cc5)CC4)cc3F)c2cc1OC [Compound 51, 1-N′-[4-(6,7-Dimethoxyquinolin-4-yl)oxy-3-fluorophenyl]-1-N-(4-fluorophenyl)-1-N′-methylcyclopropane-1,1-dicarboxamide] | > 300 nM | 9.6 min | 
